Assay results as given in patent US20050250090A1, “Assay systems and methods for detecting molecules that interact with SK2 channels” (priority 2003, published 2005).
Bridge positions count the residues as written; N and C are the ends. Peptide text beside a SMILES is read from it.

Target: hSK2A^+ (Homo sapiens, UniProt Q9H2S1, DUP58-58)
Assay: Membrane potential sensitive dye fluorescence assay (FLIPR384) in tsA201 cells stably expressing SK2
Type: cell-based
Conditions: for Hill coefficient (nH): inhibition of ATP/Tg induced decrease in fluorescence, FIG. 9; for effect on the fluorescence signals (responses to ATP/Tg and Cs+): 10 minutes incubation
Description: These cells were plated in a black optical bottom 384 well assay plate at a density of 8×10^6 cells/plate. […] After a 30-minute incubation in the voltage sensitive dye, the cell plate was transferred to a fluorescence plate reader (FLIPR384™, Molecular Devices), and ten baseline fluorescence readings were obtained.
Intracellular Ca^2+ levels of the cells were raised by addition of ATP (200 μM final concentration) and thapsigargin (1 μM final concentration). […] In FIG. 8, time is represented in seconds on the X-axis, and fluorescence is represented in au on the Y-axis. ATP/Tg addition is indicated at time 1, and CsCl addition is indicated at time II.
The magnitude of the ATP/Tg induced decrease in fluorescence was measured in the presence of each of a panel of known SK2 inhibitors. […]

hSK2A^+, sequence (Q9H2S1 with tags, fused parts or gaps DUP58-58): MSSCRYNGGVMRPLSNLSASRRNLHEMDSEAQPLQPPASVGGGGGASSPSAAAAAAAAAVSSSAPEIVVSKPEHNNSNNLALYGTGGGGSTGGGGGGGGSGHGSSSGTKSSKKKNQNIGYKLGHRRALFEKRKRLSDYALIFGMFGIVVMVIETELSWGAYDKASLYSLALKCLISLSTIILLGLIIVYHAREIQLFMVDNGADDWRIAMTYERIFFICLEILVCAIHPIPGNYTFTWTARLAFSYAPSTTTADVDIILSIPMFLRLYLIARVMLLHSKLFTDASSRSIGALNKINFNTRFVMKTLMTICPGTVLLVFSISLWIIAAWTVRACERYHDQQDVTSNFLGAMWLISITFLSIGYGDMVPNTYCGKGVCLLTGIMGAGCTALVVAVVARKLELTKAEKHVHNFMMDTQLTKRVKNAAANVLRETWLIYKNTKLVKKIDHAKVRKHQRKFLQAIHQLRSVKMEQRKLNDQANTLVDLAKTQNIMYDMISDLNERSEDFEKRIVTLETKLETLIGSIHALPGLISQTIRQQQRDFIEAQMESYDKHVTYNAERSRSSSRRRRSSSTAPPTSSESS

Compound | Hill coefficient (nH) | effect on the fluorescence signals (responses to ATP/Tg and Cs+) (tested at 833 nM) | other results
O=c1[nH]c2cc(C(F)(F)F)ccc2n1-c1cc(C(F)(F)F)ccc1O [NS1619] | 2 |  | 
C[N+]1(C)CCc2cc3c(cc2[C@H]1[C@@H]1OC(=O)c2c1ccc1c2OCO1)OCO3.[Br-] [bicuculline methobromide] | 1 |  | 
CC(N/C(=N\C#N)Nc1ccncc1)C(C)(C)C (centres unmarked) [pinacidil] |  |  | effect on the fluorescence signals (responses to ATP/Tg and Cs+) (tested at 286 μM): no effect
C=C[C@H]1C[N@@]2CC[C@H]1C[C@@H]2[C@@H](O)c1ccnc2ccc(OC)cc12 [quinidine] | 0.6 |  | 
CC[C@H](C)[C@@H]1NC(=O)[C@@H]2CSSC[C@H](NC(=O)[C@H](Cc3ccccc3)NC(=O)[C@H](C)N)C(=O)N[C@@H](CC(N)=O)C(=O)N[C@@H](CC(C)C)C(=O)N[C@@H](CCCNC(=N)N)C(=O)N[C@@H](CCSC)C(=O)N[C@H]3CSSC[C@H](NC(=O)[C@H](CCCCN)NC(=O)[C@H](CC(=O)O)NC(=O)CNC1=O)C(=O)N[C@@H](CCC(=O)O)C(=O)N[C@H](C(=O)N[C@H](C(=O)N[C@@H](CCCCN)C(=O)N[C@@H](Cc1c[nH]cn1)C(N)=O)C(C)C)CSSC[C@H](NC(=O)[C@H](CO)NC(=O)[C@H](CC(C)C)NC(=O)[C@H](CCC(N)=O)NC3=O)C(=O)N[C@@H](CCCNC(=N)N)C(=O)N[C@@H](CO)C(=O)N[C@@H](CC(C)C)C(=O)NCC(=O)N[C@@H](CC(C)C)C(=O)N[C@@H](CC(C)C)C(=O)NCC(=O)N[C@@H](CCCCN)C(=O)N2 [scyllatoxin] (H-AFCNLRMCQLSCRSLGLLGKCIGDKCECVKH-NH2; disulfide 3-21, 8-26, 12-28) |  |  | IC50: 1.1 nM
iberiotoxin (QFTDVDCSVSKECWSVCKDLFGVDRGKCMGKKCRCYQ) [toxin isolated from Mesobuthus tamulus] |  | no effect | 
noxiustoxin (TIINVKCTSPKQCSKPCKELYGSSAGAKCMNGKCKCYNN) |  | no effect | 
α-dendrotoxin (QPRRKLCILHRNPGRCYDKIPAFYYNQKKKQCERFDWSGCGGNSNRFKTIEECRRTCIG) |  | no effect | 
